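Five compound concentrations were applied to cells in 96-well plates for 48 hours; endpoints were derived by simple linear interpolation of the resulting dose-response curve. GI50: concentration for 50% inhibition of growth.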 The source made the active and inactive calls. No stated cut-off is given here; in the data, active = GI50 up to about 1.1 µM and inactive = higher.
Legend:
Experiment in all cases: NCI anticancer screen, dose series, 48 h
[1] = system: TK-10
[2] = system: OVCAR-3
[3] = system: UACC-257
[4] = system: HOP-62
[5] = system: SF-539
[6] = system: UACC-62
[7] = system: IGROV-1
[8] = system: KM12
[9] = system: MDA-MB-231
[10] = system: U-251
[11] = system: HCT-116
[12] = system: SF-295
[13] = system: SF-268
[14] = system: Hs-578T

Measured: GI50

Cn1c2ccccc2c2c3c(c4c5ccccc5n(C)c4c21)C(=O)c1ccccc1C3=O
inactive: [1] 24.3 µM | [2] 41.8 µM | [3] 79.6 µM | [4] 31.1 µM | [5] 16.6 µM | [6] 25.9 µM | [7] 31 µM | [8] 86.9 µM | [9] 19.6 µM | [10] 17.9 µM | [11] 30.1 µM | [12] 44.1 µM

C=C(CBr)CCCOCc1ccccc1
inactive: [1] 16.7 µM | [2] 19.1 µM | [3] 33.9 µM | [4] 22.2 µM | [5] 19.5 µM | [6] 18.7 µM | [7] 21.4 µM | [8] 18.9 µM | [9] > 10 µM | [10] 34.7 µM | [11] 41.6 µM | [13] 15.8 µM | [12] 36.1 µM

COc1ccc(NC(C)=O)cc1N1C(=O)/C(=C\c2cc(OC)c(OC)c(OC)c2)S(=O)(=O)C1c1ccccc1 (stereo not given)
inactive: [1] > 100 µM | [2] 60.3 µM | [3] 89.5 µM | [4] 78.2 µM | [5] > 100 µM | [6] 65.6 µM | [7] 98.4 µM | [8] 46.7 µM | [9] 74.3 µM | [10] 46.8 µM | [11] 29.3 µM | [12] 55 µM

CN(C)CC1CN=C(N)O1 (stereo not given)
inactive: [1] > 100 µM | [2] > 100 µM | [3] > 100 µM | [4] > 100 µM | [5] > 100 µM | [6] > 100 µM | [8] > 100 µM | [9] > 100 µM | [10] > 100 µM | [11] > 100 µM | [13] > 100 µM | [12] > 100 µM

CC[C@@H]1ON(C)[C@H]2CN(C)C(=O)[C@@H]12
inactive: [1] > 100 µM | [2] > 100 µM | [3] > 100 µM | [4] > 100 µM | [14] > 100 µM | [7] > 100 µM | [9] > 100 µM | [10] > 100 µM | [11] > 100 µM | [12] > 100 µM

CC(C)(C)[Si](C)(C)OC1(CCc2ccccc2OS(=O)(=O)C(F)(F)F)CCCC=C1COCc1ccccc1 (stereo not given)
inactive: [1] > 100 µM | [2] > 100 µM | [4] > 100 µM | [5] > 100 µM | [6] 29.5 µM | [7] 4.81 µM | [8] 14 µM | [9] > 100 µM | [10] 5 µM | [11] 3.33 µM | [12] 6.34 µM

— ChEMBL document CHEMBL1201862, “PubChem BioAssay data set” (2004)
